Source: article PMC7866854, “Pseudo-Dipeptide Bearing α,α-Difluoromethyl Ketone Moiety as Electrophilic Warhead with Activity against Coronaviruses” (International Journal of Molecular Sciences, 2021)
Where two headings read alike, the source gives them in different places.

Key:
[1] = system: SARS-CoV M^pro; details: read-out: IC50, SARS-CoV Mpro inhibitor; cited from earlier work
[2] = target: bovine pancreatic α-chymotrypsin; set-up: method as in PMID 2353815, PMID 3527255; details: read-out: Ki, α-chymotrypsin inhibitor; cited from earlier work
[3] = system: hCoV-229E; test: CPE-based antiviral assay (CellTiter-Glo cell viability as surrogate of CPE) in MRC5 cells infected with hCoV-229E; details: Human coronavirus 229E; for EC50: read-out: EC50, inhibition of hCoV-229E replication
[4] = target: HIV-1 protease; set-up: method as in doi:10.1039/c39910000110; details: read-out: Ki, HIV protease inhibitor; cited from earlier work
[5] = target: Anopheles gambiae acetylcholinesterase (AgAChE); details: read-out: IC50, AgAChE inhibitor; cited from earlier work
[6] = system: SARS-CoV-2 M^pro; details: read-out: Exp. EC50; listed under SARS-CoV-2 Mpro; cited from earlier work
[7] = in vitro; details: human

## CC(C)CC(NC(=O)OCc1ccccc1)C(=O)NC(Cc1ccccc1)C(O)(O)C(F)(F)F (stereo not drawn) [compound 7, Z-Leu-Phe-CF3]
[1]
  IC50: 10 µM

## CC(=O)NC(CC(C)C)C(=O)NC(Cc1ccccc1)C(=O)C(F)F (stereo not drawn) [compound 4, Ac-Leu-Phe-CHF2]
[2]
  Ki: 25 µM

## CC(C)CC(NC(=O)OCc1ccccc1)C(=O)NC(CCc1ccccc1)C(O)(O)C(F)F (stereo not shown) [compound 8, Z-Leu-Homophe-CHF2]
[3]; MRC5, 72 h
  EC50: 12.9 ± 1.22 µM
[3]; MRC5 cells, 100 PFU/well, 72 h p.i., CellTiter-Glo, read-out: EC90, inhibition of hCoV-229E replication
  EC90: 38.6 ± 0.67 µM

## CC(C)C(NC(=O)OCc1ccccc1)C(=O)NC(Cc1ccccc1)C(=O)C(F)(F)C(Cc1ccccc1)NC(=O)C(NC(=O)OCc1ccccc1)C(C)C (stereo not shown) [compound 6]
[4]
  Ki: 0.0001 µM

## CC(C)(C)c1cccc(C(=O)C(F)F)c1 [compound 1]
[5]
  IC50: 0.00605 µM

## CC(C)n1cc(C(=O)C(F)F)cn1 [compound 2]
[5]
  IC50: 0.802 µM

## Cc1cc(C(=O)N[C@@H](C)C(=O)N[C@H](C(=O)N[C@@H](CC(C)C)C(=O)N[C@H](/C=C\C(=O)OCc2ccccc2)C[C@@H]2CCNC2=O)C(C)C)no1 [N3]
[6]
  EC50: 16.8 ± 1.7 µM

## CCC(CC)COC(=O)[C@H](C)N[P@](=O)(OC[C@H]1O[C@@](C#N)(c2ccc3c(N)ncnn23)[C@H](O)[C@@H]1O)Oc1ccccc1 [remdesivir]
[3]; MRC5 cells, 100 PFU/well, 72 h p.i., CellTiter-Glo
  EC50: 0.034 ± 0.0025 µM
[7]
  CC50: > 10 µM
